Values after ≈ are worked out from the molar mass of the structure shown. Blank lines part the entries; values can stand above or below the compound they belong to.
What was measured:
L1210 leukemia cells [1] = assay: Inhibiting proliferation of L1210 leukemia cell; format: cell-based; conditions: Mus musculus, 96 h, 1×10^5 cells/ml, RPMI with 10% FCS, 37° C., 4 days, trypan blue
Experimental: Measurement of the Action of Inhibiting Proliferation of L1210 Leukemia Cell
L1210 leukemia cells were added to an RPMI medium containing 10% FCS (fetal calf serum), and the concentration of the cells was adjusted to 1×10^5 cells/ml. Each of the test compounds shown in Table 5 was dissolved in 99.5% ethanol. Prior to use, the final concentration of the ethanol solution was adjusted to less than 0.1%, and it was added to the culture medium. The culture medium was then maintained at 37° C. in a stationary condition for 4 days. After the cultivation, the number of surviving cells was measured by dyeing with trypan blue. As a control, 0.1% ethanol was used. A dose-reaction curve was plotted from the ratios of proliferation against the control, and IC50 was determined.

Acute toxicity = conditions: mouse, in vivo, iv, four weeks old LR strain male mice (SPF)
Experimental: Measurement of Acute Toxicity
The acute toxicity of one typical compound of this invention was measured by a customary method using four weeks old LR strain male mice (SPF).

[2] = Cyto protection: cytotoxicity on stomach epithelial cells; format: cell-based; conditions: stomach epithelial cells; rabbit fetus cells, DME containing 20% FCS; read-out: LD50 Stomach epitherial cells
Experimental: (§1) Measurement of Cyto Protection
(§2) Stomach epithelial cells taken from a rabbit fetus and aortic smooth muscle cells from a rat were used as normal cells, and L1210 leukemia cells were used as cancer cells. The cytotoxicity of each of the compounds shown in Table 6 on the normal cells was xamined.
(§3) Specifically, the stomach epithelial cells were cultivated in DME containing 20% FCS, and the aortic smooth muscle cells were cultivated in MEM containing 10% CS. Each of the test compounds was dissolved in ethanol and added to the culture broth in an amount of 0.1%. The mixture was filtered through a millipore filter.
(§4) The cytotoxicities LD50) of each of the test compounds on the stomach epithelial cells and the aortic smooth muscle cells were determined. Furthermore, from the LFD50 values, the safety coefficient (LD50 on the normal cells/LD50 on the L1210 cells) was calculated, and the results are also shown in Table 6.

[3] = Cyto protection: cytotoxicity on aortic smooth muscle cells; format: cell-based; conditions: aortic smooth muscle cells; rat cells, MEM containing 10% CS; read-out: LD50 Aortic smooth muscle cells
Experimental: as §1, §2, §3, §4

L1210 leukemia cells [4] = assay: Cyto protection: cytotoxicity on L1210 leukemia cells and safety coefficient; format: cell-based, mouse; conditions: for Safety coefficient: LD50 on the normal cells/LD50 on the L1210 cells
Experimental: as §1, §2
The cytotoxicities LD50) of each of the test compounds on the stomach epithelial cells and the aortic smooth muscle cells were determined.

Stomach epithelial cells = assay: Cyto protection: cytotoxicity on stomach epithelial cells; format: cell-based; conditions: rabbit fetus cells, DME containing 20% FCS
Experimental: as §1, §2, §3, §4

[5] = system: aortic smooth muscle cells; assay: Cyto protection: cytotoxicity on aortic smooth muscle cells; format: cell-based; conditions: rat cells, MEM containing 10% CS
Experimental: as §1, §2, §3, §4

[6] = system: Ehrlich ascites carcinoma cells; assay: Antitumor effect on Ehrlich ascites carcinoma in ICR mice; format: in vivo; conditions: 30 mg/kg/day i.p. (methyl ester) or 20 mg/kg/day i.p. (12-epimer) for 5 days; for average number of days of survival: from 24 hours after tumor inoculation
Experimental: Measurement of the Antitumor Effect On Ehrich Ascites Carcinoma
1×10^5 Ehrlich ascites carcinoma cells were intraperitoneally administred to ICR mice. After the lapse of 24 hours, 30 mg/kg/day of 7(E)-7,8-dehydroprostaglandin A1 methyl ester and 20 mg/kg/day of its 12-epimer were each intraperitoneally administered to the mice for 5 days. The periods of survival of these animals were examined.

[7] = system: mouse leukemia cell L1210; conditions: Biochem. Biophys. Res. Commn., 105, 956 (1982); cited from earlier work

- IC50 (L1210 leukemia cells [1]): 0.3 µg/mL (≈ 0.902 µM)
SMILES: CCCCCCC=CC1C=CC(=O)C1=CCCCCCC(=O)OC (stereo not shown) [4-(1-octenyl)-5-(6-methoxycarbonylhexylidene)-2-cyclopentenone]

- IC50 (L1210 leukemia cells [1]): 0.3 µg/mL (≈ 0.876 µM)
SMILES: COC(=O)CCCC#CC=C1C(=O)C=CC1C=CC(O)C1CCCC1 (stereo not shown) [4-(3-Hydroxy-3-cyclopentyl-1-propenyl)-5-(6-methoxycarbonyl-2-hexynylidene)-2-cyclopentenone]

- IC50 (L1210 leukemia cells [1]): 0.2 µg/mL (≈ 0.555 µM)
SMILES: COC(=O)CCCC#CC(O)C1C(=O)C=CC1C=CC(O)C1CCCC1 (stereo not shown) [4-(3-hydroxy-3-cyclopentyl-1-propenyl)-5-(1-hydroxy-6-methoxycarbonyl-2-hexyn-1-yl)-2-cyclopentenone]

- IC50 (L1210 leukemia cells [1]): 0.3 µg/mL (≈ 1.08 µM)
SMILES: CCCCC1C=CC(=O)C1=CCCCCCC(=O)OC (stereo not shown) [4-Butyl-5-(6-methoxycarbonylhexylidene)-2-cyclopentenone]

SMILES: CCCCC[C@H](O)/C=C/[C@H]1C=CC(=O)/C1=C/CCCCCC(=O)O [7(E)-7,8-Dehydroprostaglandin A1]
- LD50 (Acute toxicity): 140 mg/kg
- CC50 [2]: 2 to 5 µg/mL (≈ 5.98 to 14.9 µM)
- CC50 [3]: 2 to 5 µg/mL (≈ 5.98 to 14.9 µM)
- IC50 (L1210 leukemia cells [1]): 0.4 µg/mL (≈ 1.2 µM)
- Safety coefficient (L1210 leukemia cells [4]): 6-25
- IC50 (L1210 leukemia cells [4]; Mus musculus, L1210, cancer cells, read-out: LD50 L1210 leukemia cells): 0.2 to 0.3 µg/mL (≈ 0.598 to 0.897 µM)

- IC50 (L1210 leukemia cells [1]): 0.7 µg/mL (≈ 1.99 µM)
SMILES: CCCCC[C@H](O)/C=C/[C@@H]1/C(=C\CCCCCC(=O)O)C(=O)C[C@H]1O [7(E)-7,8-Dehydroprostaglandin E1]

SMILES: CCCCCC(O)C=CC1C=CC(=O)C1=CCCCCCC(=O)O (stereo not shown) [12-Epimer of 7(E)-7,8-dehydroprostaglandin A1]
- LD50 Stomach epitherial cells (Stomach epithelial cells): 1 to 2 µg/mL
- LD50 Aortic smooth muscle cells [5]: 1 to 2 µg/mL
- Safety coefficient (L1210 leukemia cells [4]): 2.5-10
- LD50 L1210 leukemia cells (L1210 leukemia cells [4]; cancer cells): 0.2 to 0.4 µg/mL

SMILES: CCCCC[C@H](O)/C=C/[C@@H]1C=CC(=O)/C1=C/CCCCCC(=O)OC [12-epi-(7E)-7,8-dehydro PGA1 methyl ester]
- IC50 (L1210 leukemia cells [1]): 0.2 µg/mL (≈ 0.574 µM)
- increase of life span (ILS %) over the control [6]: 76.5%
- ratio of survival for more than 60 days [6]: 1/6
- average number of days of survival [6]: 33.0 ± 9.8 days

SMILES: CCCCC[C@H](O)/C=C/[C@H]1C=CC(=O)/C1=C/CCCCCC(=O)OC [(7E)-7,8-dehydro PGA1 methyl ester]
- increase of life span (ILS %) over the control [6]: 65.8%
- ratio of survival for more than 60 days [6]: 2/6
- average number of days of survival [6]: 31 ± 1.9 days

SMILES: COC12C(COC(N)=O)C3=C(C(=O)C(C)=C(N)C3=O)N1CC1NC12 (stereo not shown) [Mytomycin C, reference compound]
- CC50 [2]: 0.01 to 0.02 µg/mL (≈ 0.0299 to 0.0598 µM)
- CC50 [3]: 0.01 µg/mL (≈ 0.0299 µM)

SMILES: CCCCC[C@H](O)/C=C/[C@H]1C(=O)C[C@H](O)[C@@H]1C/C=C\CCCC(=O)O [PGD2]
- IC50 of PGD2 on L1210 cell [7]: 2.4 micrograms/ml

Source: patent US4766147A, “Novel 5-membered cyclic compounds, process for production thereof, and pharmaceutical use thereof” (priority 1982, dated 1988)
